Results reported in PubChem BioAssay AID248 (DTP/NCI, 2004).
Several values for one entry are separate records, joined by “and”; a condition that tells them apart may be missing. Equal entries are not always repeated. Inconclusive results and toxic doses are left out. Cut-off read from the data, not from the text of the source: active = T/C of 150% or more; inactive = T/C below 125%.

Test system: L1210 leukemia ip in BDF1 mice, survival T/C
Test: NCI In Vivo Anticancer Drug Screen. Data for tumor model L1210 Leukemia (intraperitoneal) in B6D2F1 (BDF1) mice
Conditions: endpoint: mean survival time, higher = longer survival
Summary of the method: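 In this screen, tumor-bearing mice given compound are compared to those given vehicle, and their survival values are reported as a treated-to-control quotient.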

[1] = dose: 12.5 mg/kg/injection, schedule: Q01DX009 (ip), vehicle: saline
[2] = dose: 25.0 mg/kg/injection, schedule: Q01DX009 (ip), vehicle: saline
[3] = dose: 50.0 mg/kg/injection, schedule: Q01DX009 (ip), vehicle: saline
[4] = dose: 100.0 mg/kg/injection, schedule: Q01DX001 (ip), vehicle: carboxymethylcellulose (CMC)
[5] = dose: 100.0 mg/kg/injection, schedule: Q04DX003 (ip), vehicle: saline with Tween-80
[6] = dose: 200.0 mg/kg/injection, schedule: Q04DX003 (ip), vehicle: saline with Tween-80
[7] = dose: 100.0 mg/kg/injection, schedule: Q04DX003 (ip), vehicle: Klucel (hydroxypropylcellulose) (HPC)
[8] = dose: 200.0 mg/kg/injection, schedule: Q04DX003 (ip), vehicle: Klucel (hydroxypropylcellulose) (HPC)
[9] = dose: 400.0 mg/kg/injection, schedule: Q04DX003 (ip), vehicle: Klucel (hydroxypropylcellulose) (HPC)
[10] = dose: 100.0 mg/kg/injection, schedule: Q01DX009 (ip), vehicle: Klucel (hydroxypropylcellulose) (HPC)
[11] = dose: 200.0 mg/kg/injection, schedule: Q01DX009 (ip), vehicle: Klucel (hydroxypropylcellulose) (HPC)
[12] = dose: 200.0 mg/kg/injection, schedule: Q01DX001 (ip), vehicle: carboxymethylcellulose (CMC)
[13] = dose: 400.0 mg/kg/injection, schedule: Q01DX001 (ip), vehicle: carboxymethylcellulose (CMC)
[14] = dose: 100.0 mg/kg/injection, schedule: Q01DX001 (ip), vehicle: Klucel (hydroxypropylcellulose) (HPC)
[15] = dose: 100.0 mg/kg/injection, schedule: Q04DX002 (ip), vehicle: Klucel (hydroxypropylcellulose) (HPC)
[16] = dose: 200.0 mg/kg/injection, schedule: Q01DX001 (ip), vehicle: Klucel (hydroxypropylcellulose) (HPC)
[17] = dose: 200.0 mg/kg/injection, schedule: Q04DX002 (ip), vehicle: Klucel (hydroxypropylcellulose) (HPC)
[18] = dose: 400.0 mg/kg/injection, schedule: Q01DX001 (ip), vehicle: Klucel (hydroxypropylcellulose) (HPC)
[19] = dose: 400.0 mg/kg/injection, schedule: Q01DX009 (ip), vehicle: Klucel (hydroxypropylcellulose) (HPC)
[20] = dose: 100.0 mg/kg/injection, schedule: Q01DX009 (ip), vehicle: saline with Tween-80
[21] = dose: 200.0 mg/kg/injection, schedule: Q01DX009 (ip), vehicle: saline with Tween-80
[22] = dose: 400.0 mg/kg/injection, schedule: Q01DX009 (ip), vehicle: saline with Tween-80

Measured: T/C

CC(c1c[nH]c2ccccc12)N1CCCCC1 (stereo not drawn)
inactive: [1] 115 % of control | [2] 107 % of control | dose: 25.0 mg/kg/injection, schedule: Q04DX003 (ip), vehicle: acetone 103 % of control | [3] 109 % of control | dose: 50.0 mg/kg/injection, schedule: Q04DX003 (ip), vehicle: acetone 95 % of control | [4] 96 % of control

O=C(O)COc1ccc(Cl)cc1CC(=O)O
inactive: dose: 50.0 mg/kg/injection, schedule: Q04DX002 (ip), vehicle: saline with Tween-80 99 % of control | dose: 100.0 mg/kg/injection, schedule: Q04DX002 (ip), vehicle: saline with Tween-80 100 % of control and 105 % of control | dose: 200.0 mg/kg/injection, schedule: Q04DX002 (ip), vehicle: saline with Tween-80 99 % of control and 103 % of control | dose: 400.0 mg/kg/injection, schedule: Q04DX002 (ip), vehicle: saline with Tween-80 103 % of control

Cc1ccc(N=Nc2c(N)nc(N)[nH]c2=O)cc1C
inactive: dose: 100.0 mg/kg/injection, schedule: Q01DX001 (ip), vehicle: saline 100 % of control | dose: 200.0 mg/kg/injection, schedule: Q01DX001 (ip), vehicle: saline 96 % of control | dose: 400.0 mg/kg/injection, schedule: Q01DX001 (ip), vehicle: saline 96 % of control

COc1ccc(-c2nc(N)ncc2CSC)cc1
inactive: [5] 101 % of control | [6] 86 % of control

C[n+]1c(-c2ccccc2)c2ccccc2c2ccccc21
inactive: dose: 0.78 mg/kg/injection, schedule: Q01DX009 (ip), vehicle: water 91 % of control | dose: 1.56 mg/kg/injection, schedule: Q01DX009 (ip), vehicle: water 96 % of control | dose: 1.56 mg/kg/injection, schedule: Q04DX003 (ip), vehicle: water 103 % of control | dose: 3.12 mg/kg/injection, schedule: Q01DX009 (ip), vehicle: water 93 % of control | dose: 3.12 mg/kg/injection, schedule: Q04DX003 (ip), vehicle: water 97 % of control | dose: 6.25 mg/kg/injection, schedule: Q04DX003 (ip), vehicle: water 108 % of control

Cc1ccc(C(=O)CC(=O)Nc2cc([N+](=O)[O-])ccc2OCCOc2ccc(C(C)(C)CC(C)(C)C)cc2)cc1
inactive: dose: 100.0 mg/kg/injection, schedule: Q01DX009 (ip), vehicle: saline sonified 100 % of control | [7] 112 % of control | dose: 200.0 mg/kg/injection, schedule: Q01DX009 (ip), vehicle: saline sonified 97 % of control | [8] 89 % of control | dose: 400.0 mg/kg/injection, schedule: Q01DX009 (ip), vehicle: saline sonified 87 % of control | [9] 94 % of control

CCCC(C)Cc1ccc(C(=O)O)cc1 (stereo not drawn)
inactive: [10] 95 % of control | [7] 97 % of control | [11] 104 % of control | [8] 103 % of control | [9] 107 % of control

OCCOCCN1CCN(C(c2ccccc2)c2ccc(Cl)cc2)CC1 (stereo not drawn)
inactive: [1] 103 % of control | [2] 103 % of control | dose: 25.0 mg/kg/injection, schedule: Q04DX003 (ip), vehicle: saline 109 % of control | [3] 103 % of control | dose: 50.0 mg/kg/injection, schedule: Q04DX003 (ip), vehicle: saline 96 % of control | dose: 100.0 mg/kg/injection, schedule: Q01DX009 (ip), vehicle: saline 103 % of control | dose: 100.0 mg/kg/injection, schedule: Q04DX003 (ip), vehicle: saline 93 % of control | dose: 200.0 mg/kg/injection, schedule: Q04DX003 (ip), vehicle: saline 90 % of control

CNc1ccc(/C=C2\C=Cc3ccccc32)cc1I
inactive: [4] 95 % of control | [12] 95 % of control | [13] 101 % of control

NC(=O)c1cn[nH]c1N
inactive: [14] 96 % of control | [10] 95 % of control and 87 % of control and 93 % of control | [15] 100 % of control and 102 % of control | [7] 106 % of control and 93 % of control | [16] 104 % of control | [11] 93 % of control and 95 % of control | [17] 96 % of control and 120 % of control | [8] 100 % of control and 91 % of control | [18] 96 % of control | [19] 97 % of control and 123 % of control and 93 % of control | dose: 400.0 mg/kg/injection, schedule: Q04DX002 (ip), vehicle: Klucel (hydroxypropylcellulose) (HPC) 100 % of control and 102 % of control | [9] 87 % of control and 93 % of control

C1=COC(/C=N/Nc2nnc(N/N=C/C3CCC=CO3)c3ccccc23)CC1 (stereo not drawn)
inactive: dose: 5.0 mg/kg/injection, schedule: Q01DX001 (ip), vehicle: saline 98 % of control | dose: 10.0 mg/kg/injection, schedule: Q01DX001 (ip), vehicle: saline 111 % of control | dose: 20.0 mg/kg/injection, schedule: Q01DX001 (ip), vehicle: saline 96 % of control | dose: 40.0 mg/kg/injection, schedule: Q01DX001 (ip), vehicle: saline 102 % of control

C=CCNC(=O)/C=C\C(=O)O
inactive: [15] 99 % of control | [17] 96 % of control

CCC(C)Nc1ccc(NC(=S)Nc2ccc(NC(C)CC)cc2)cc1 (stereo not drawn)
inactive: dose: 100.0 mg/kg/injection, schedule: Q04DX002 (ip), vehicle: other 89 % of control | dose: 200.0 mg/kg/injection, schedule: Q04DX002 (ip), vehicle: other 86 % of control | dose: 400.0 mg/kg/injection, schedule: Q04DX002 (ip), vehicle: other 86 % of control

COc1ccc(-c2c(C)c(C)[nH]c(=O)c2C(=O)O)c(OCc2ccccc2)c1OC
inactive: [20] 100 % of control | [21] 100 % of control | [22] 97 % of control

CCc1ccc(NS(=O)(=O)c2c(C)cc(C)cc2C)cc1
inactive: [10] 101 % of control | [11] 105 % of control | [19] 97 % of control

CC1(C)N=C(N)N=C(N)N1c1ccc(OCCNC(=O)c2ccc(S(=O)(=O)F)cc2)c(Cl)c1
inactive: dose: 18.75 mg/kg/injection, schedule: Q04DX003 (ip), vehicle: saline with Tween-80 103 % of control | dose: 37.5 mg/kg/injection, schedule: Q04DX003 (ip), vehicle: saline with Tween-80 108 % of control | dose: 75.0 mg/kg/injection, schedule: Q04DX003 (ip), vehicle: saline with Tween-80 104 % of control

Cc1ccnc(NC(=O)NCCCl)c1
inactive: [4] 103 % of control | [12] 108 % of control | [13] 108 % of control

Nc1cccc2ccc3ccc4ccccc4c3c12
inactive: [14] 105 % of control | [16] 94 % of control | [18] 97 % of control

c1ccc(N2N=NC3C4CCC(C4)C32)cc1 (stereo not drawn)
inactive: [20] 108 % of control | [21] 98 % of control | [22] 104 % of control

CC(C)CCOC(=O)C(Br)c1ccccc1 (stereo not drawn)
inactive: [20] 95 % of control | [5] 104 % of control | [21] 88 % of control | [6] 99 % of control | [22] 88 % of control | dose: 400.0 mg/kg/injection, schedule: Q04DX003 (ip), vehicle: saline with Tween-80 95 % of control

COc1ccc(N=NN(C)C(=O)c2ccccc2)cc1
inactive: dose: 50.0 mg/kg/injection, schedule: Q01DX009 (ip), vehicle: Klucel (hydroxypropylcellulose) (HPC) 108 % of control | dose: 75.0 mg/kg/injection, schedule: Q01DX001 (ip), vehicle: Klucel (hydroxypropylcellulose) (HPC) 112 % of control | [10] 120 % of control | dose: 150.0 mg/kg/injection, schedule: Q01DX001 (ip), vehicle: Klucel (hydroxypropylcellulose) (HPC) 111 % of control | dose: 300.0 mg/kg/injection, schedule: Q01DX001 (ip), vehicle: Klucel (hydroxypropylcellulose) (HPC) 107 % of control

COc1cc(NC(=O)Nc2cc(OC)c(OC)c(OC)c2)cc(OC)c1OC
inactive: [7] 96 % of control | [5] 93 % of control | [8] 98 % of control | [9] 91 % of control

NNC(=O)c1n[nH]c(=S)[nH]c1=O
inactive: [4] 98 % of control | [12] 103 % of control | [13] 95 % of control

O=C1/C(=C\c2ccccc2)Sc2cc[nH]c21
inactive: [14] 96 % of control | [16] 105 % of control | [18] 96 % of control
